Measured values: patent US20240228489A1, “POSITIVE ALLOSTERIC MODULATORS OF THE MUSCARINIC ACETYLCHOLINE RECEPTOR M1” (Vanderbilt University, priority 2021, published 2024)

Key:
human mAChR M1 [1] = biological target: T1, human mAChR M1 (Homo sapiens, UniProt P11229); test: mAChR M1 cell-based functional assay (calcium mobilization), PAM mode: increase in the EC20 acetylcholine response
T1 sequence (P11229 1-460): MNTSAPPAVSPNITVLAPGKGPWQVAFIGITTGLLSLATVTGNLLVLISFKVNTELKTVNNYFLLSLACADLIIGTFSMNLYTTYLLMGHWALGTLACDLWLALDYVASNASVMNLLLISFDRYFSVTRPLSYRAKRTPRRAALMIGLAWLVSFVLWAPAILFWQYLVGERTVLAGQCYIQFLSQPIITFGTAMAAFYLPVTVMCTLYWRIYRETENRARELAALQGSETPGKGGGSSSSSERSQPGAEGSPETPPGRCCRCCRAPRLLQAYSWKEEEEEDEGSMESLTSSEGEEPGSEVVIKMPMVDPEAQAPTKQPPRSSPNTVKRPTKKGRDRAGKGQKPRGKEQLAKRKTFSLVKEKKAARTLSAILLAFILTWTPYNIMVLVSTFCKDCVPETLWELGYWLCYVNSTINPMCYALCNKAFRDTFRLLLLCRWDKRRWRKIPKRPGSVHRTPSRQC
Summary of the method: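 CHO-K1 cells stably expressing hM1, Fluo-4 loaded, read by FDSS calcium flux at 1 Hz. Compound (11-point 1:3 CRC) added at 4 s, EC20 acetylcholine at 144 s, EC80 at 230 s. PAM activity taken as concentration-dependent increase in EC20 ACh response, fitted by four-parameter logistic for EC50/Emax.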

human mAChR M1 [2] = biological target: T1, human mAChR M1; test: mAChR M1 cell-based functional assay (calcium mobilization), agonist mode: compound alone, Emax relative to acetylcholine maximum; conditions: for Agonist Activity Human M1 EC50 / EC50: human mAChR M1; for Emax: relative to the maximum for acetylcholine
Summary of the method: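 CHO-K1 cells stably expressing hM1 were loaded with Fluo-4 AM, and calcium flux was read as fluorescence ratio. Compound was added alone from an 11-point 1:3 curve, and the agonist response was fitted with a four-parameter logistic. Emax is expressed relative to the acetylcholine maximum.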

[2H]C1([2H])c2ncccc2C(=O)N1Cc1c(F)cc(-c2ccc(C(F)(F)F)c3nn(C)cc23)cc1OCC(C)C [Compound 216, 6-(2-fluoro-6-isobutoxy-4-(2-methyl-7-(trifluoromethyl)-2H-indazol-4-yl)benzyl)-6,7-dihydro-5H-pyrrolo[3,4-b]pyridin-5-one-7,7-d2]
EC50 (human mAChR M1 [1]): 3180 nM | Emax (human mAChR M1 [1]): 83% | Agonist Activity Human M1 EC50 (human mAChR M1 [2]): Inactive | Emax (human mAChR M1 [2]): 2%

[2H]C1([2H])c2ncccc2C(=O)N1Cc1c(F)cc(-c2cccc3nn(C)cc23)cc1C1CC1 [Compound 192, 6-(2-cyclopropyl-6-fluoro-4-(2-methyl-2H-indazol-4-yl)benzyl)-6,7-dihydro-5H-pyrrolo[3,4-b]pyridin-5-one-7,7-d2]
EC50 (human mAChR M1 [1]): 137 nM | Emax (human mAChR M1 [1]): 84% | EC50 (human mAChR M1 [2]): 5960 nM | Emax (human mAChR M1 [2]): 44%

[2H]C1([2H])c2ncccc2C(=O)N1Cc1c(F)cc(-c2ccc(C)c3nn(C)cc23)cc1F [Compound 27, 6-(4-(2,7-dimethyl-2H-indazol-4-yl)-2,6-difluorobenzyl)-6,7-dihydro-5H-pyrrolo[3,4-b]pyridin-5-one-7,7-d^2]
EC50 (human mAChR M1 [1]): 542 nM | Emax (human mAChR M1 [1]): 84% | Agonist Activity Human M1 EC50 (human mAChR M1 [2]): Inactive | Emax (human mAChR M1 [2]): 4%

[2H]C1([2H])c2ncccc2C(=O)N1Cc1c(C)cc(-c2ccc(C)c3nn(C([2H])([2H])[2H])cc23)cc1F [Compound 157, 6-(2-fluoro-6-methyl-4-(7-methyl-2-(methyl-d3)-2H-indazol-4-yl)benzyl)-6,7-dihydro-5H-pyrrolo[3,4-b]pyridin-5-one-7,7-d2]
EC50 (human mAChR M1 [1]): 456 nM | Emax (human mAChR M1 [1]): 81% | EC50 (human mAChR M1 [2]): ≥ 10000 nM | Emax (human mAChR M1 [2]): 16%

[2H]C1([2H])c2ncccc2C(=O)N1Cc1ccc(-c2ccc3nn(C)cc3c2C)cc1 [Compound 238, 6-(4-(2,4-dimethyl-2H-indazol-5-yl)benzyl)-6,7-dihydro-5H-pyrrolo[3,4-b]pyridin-5-one-7,7-d2]
EC50 (human mAChR M1 [1]): > 10000 nM | Emax (human mAChR M1 [1]): 39% | Agonist Activity Human M1 EC50 (human mAChR M1 [2]): Inactive | Emax (human mAChR M1 [2]): 2%

[2H]C1([2H])c2ncccc2C(=O)N1Cc1c(F)cc(-c2cc(Cl)cc3nn(C([2H])([2H])[2H])cc23)cc1F [Compound 85, 6-(4-(6-chloro-2-(methyl-d3)-2H-indazol-4-yl)-2,6-difluorobenzyl)-6,7-dihydro-5H-pyrrolo[3,4-b]pyridin-5-one-7,7-d2]
EC50 (human mAChR M1 [1]): 654 nM | Emax (human mAChR M1 [1]): 51% | Agonist Activity Human M1 EC50 (human mAChR M1 [2]): Inactive | Emax (human mAChR M1 [2]): 2%

[2H]C1([2H])c2ncccc2C(=O)N1Cc1c(F)cc(-c2ccc(C(F)(F)F)c3nn(C)cc23)cc1F [Compound 41, 6-(2,6-difluoro-4-(2-methyl-7-(trifluoromethyl)-2H-indazol-4-yl)benzyl)-6,7-dihydro-5H-pyrrolo[3,4-b]pyridin-5-one-7,7-d2]
EC50 (human mAChR M1 [1]): 604 nM | Emax (human mAChR M1 [1]): 65% | Agonist Activity Human M1 EC50 (human mAChR M1 [2]): Inactive | Emax (human mAChR M1 [2]): 2%

[2H]C1([2H])c2ncccc2C(=O)N1Cc1c(F)cc(-c2ccc(OC(C)C)c3c2cnn3C([2H])([2H])[2H])cc1F [Compound 250, 6-(2,6-difluoro-4-(7-isopropoxy-1-(methyl-d3)-1H-indazol-4-yl)benzyl)-6,7-dihydro-5H-pyrrolo[3,4-b]pyridin-5-one-7,7-d2]
EC50 (human mAChR M1 [1]): > 10000 nM | Emax (human mAChR M1 [1]): 51% | Agonist Activity Human M1 EC50 (human mAChR M1 [2]): Inactive | Emax (human mAChR M1 [2]): 3%

[2H]C1([2H])c2ncccc2C(=O)N1Cc1c(F)cc(-c2ccc(F)c3nn(C([2H])([2H])[2H])cc23)cc1F [Compound 45, 6-(2,6-difluoro-4-(7-fluoro-2-(methyl-d^3)-2H-indazol-4-yl)benzyl)-6,7-dihydro-5H-pyrrolo[3,4-b]pyridin-5-one-7,7-d2]
EC50 (human mAChR M1 [1]): 411 nM | Emax (human mAChR M1 [1]): 73% | Agonist Activity Human M1 EC50 (human mAChR M1 [2]): Inactive | Emax (human mAChR M1 [2]): 2%

[2H]C1([2H])c2ncccc2C(=O)N1Cc1ccc(-c2ccc(OC)c3nn(C([2H])([2H])[2H])cc23)cc1F [Compound 55, 6-(2-fluoro-4-(7-methoxy-2-(methyl-d3)-2H-indazol-4-yl)benzyl)-6,7-dihydro-5H-pyrrolo[3,4-b]pyridin-5-one-7,7-d2]
EC50 (human mAChR M1 [1]): 275 nM | Emax (human mAChR M1 [1]): 88% | Agonist Activity Human M1 EC50 (human mAChR M1 [2]): Inactive | Emax (human mAChR M1 [2]): 7%

[2H]C1([2H])c2ncccc2C(=O)N1Cc1c(F)cc(-c2ccc(C(F)(F)F)c3nn(C([2H])([2H])[2H])cc23)cc1F [Compound 74, 6-(2,6-difluoro-4-(2-(methyl-d3)-7-(trifluoromethyl)-2H-indazol-4-yl)benzyl)-6,7-dihydro-5H-pyrrolo[3,4-b]pyridin-5-one-7,7-d2]
EC50 (human mAChR M1 [1]): 592 nM | Emax (human mAChR M1 [1]): 81% | Agonist Activity Human M1 EC50 (human mAChR M1 [2]): Inactive | Emax (human mAChR M1 [2]): 1%

[2H]C1([2H])c2ncccc2C(=O)N1Cc1c(F)cc(-c2ccc(OCC3CCCO3)c3nn(C)cc23)cc1F (stereo not shown) [Compound 134, 6-(2,6-difluoro-4-(2-methyl-7-((tetrahydrofuran-2-yl)methoxy)-2H-indazol-4-yl)benzyl)-6,7-dihydro-5H-pyrrolo[3,4-b]pyridin-5-one-7,7-d2]
EC50 (human mAChR M1 [1]): 701 nM | Emax (human mAChR M1 [1]): 75% | EC50 (human mAChR M1 [2]): ≥ 10000 nM | Emax (human mAChR M1 [2]): 23%

[2H]C([2H])([2H])Oc1cc(-c2cc(F)c(CN3C(=O)c4cccnc4C3([2H])[2H])c(F)c2)c2cnn(C([2H])([2H])[2H])c2c1 [Compound 88, 6-(2,6-difluoro-4-(6-(methoxy-d3)-1-(methyl-d3)-1H-indazol-4-yl)benzyl)-6,7-dihydro-5H-pyrrolo[3,4-b]pyridin-5-one-7,7-d2]
EC50 (human mAChR M1 [1]): 2700 nM | Emax (human mAChR M1 [1]): 37% | Agonist Activity Human M1 EC50 (human mAChR M1 [2]): Inactive | Emax (human mAChR M1 [2]): 2%

[2H]C1([2H])c2ncccc2C(=O)N1Cc1c(C)cc(-c2ccc(OC)c3nn(C([2H])([2H])[2H])cc23)cc1F [Compound 159, 6-(2-fluoro-4-(7-methoxy-2-(methyl-d3)-2H-indazol-4-yl)-6-methylbenzyl)-6,7-dihydro-5H-pyrrolo[3,4-b]pyridin-5-one-7,7-d2]
EC50 (human mAChR M1 [1]): 164 nM | Emax (human mAChR M1 [1]): 83% | EC50 (human mAChR M1 [2]): 6240 nM | Emax (human mAChR M1 [2]): 31%

[2H]C1([2H])c2ncccc2C(=O)N1Cc1c(F)cc(-c2cccn3nc(C)cc23)cc1F [Compound 235, 6-(2,6-Difluoro-4-(2-methylpyrazolo[1,5-a]pyridin-4-yl)benzyl)-6,7-dihydro-5H-pyrrolo[3,4-b]pyridin-5-one-7,7-d2]
EC50 (human mAChR M1 [1]): 744 nM | Emax (human mAChR M1 [1]): 73% | EC50 (human mAChR M1 [2]): > 10000 nM | Emax (human mAChR M1 [2]): 23%

[2H]C1([2H])c2ncccc2C(=O)N1Cc1ccc(-c2ccc3nn(C)cc3c2)cc1F [Compound 9, 6-(2-fluoro-4-(2-methyl-2H-indazol-5-yl)benzyl)-6,7-dihydro-5H-pyrrolo[3,4-b]pyridin-5-one-7,7-d2]
EC50 (human mAChR M1 [1]): 686 nM | Emax (human mAChR M1 [1]): 71% | Agonist Activity Human M1 EC50 (human mAChR M1 [2]): Inactive | Emax (human mAChR M1 [2]): 6%

[2H]C1([2H])c2ncccc2C(=O)N1Cc1c(C)cc(-c2ccc(Cl)c3nn(C)cc23)cc1F [Compound 199, 6-(4-(7-chloro-2-methyl-2H-indazol-4-yl)-2-fluoro-6-methylbenzyl)-6,7-dihydro-5H-pyrrolo[3,4-b]pyridin-5-one-7,7-d2]
EC50 (human mAChR M1 [1]): 475 nM | Emax (human mAChR M1 [1]): 81% | Agonist Activity Human M1 EC50 (human mAChR M1 [2]): Inactive | Emax (human mAChR M1 [2]): 4%

[2H]C1([2H])c2ncccc2C(=O)N1Cc1ccc(-c2ccc(F)c3nn(C([2H])([2H])[2H])cc23)cc1F [Compound 54, 6-(2-fluoro-4-(7-fluoro-2-(methyl-d3)-2H-indazol-4-yl)benzyl)-6,7-dihydro-5H-pyrrolo[3,4-b]pyridin-5-one-7,7-d2]
EC50 (human mAChR M1 [1]): 382 nM | Emax (human mAChR M1 [1]): 82% | EC50 (human mAChR M1 [2]): > 10000 nM | Emax (human mAChR M1 [2]): 5%

[2H]C1([2H])c2ncccc2C(=O)N1Cc1c(F)cc(-c2ccc(OCCN(C)C)c3nn(C)cc23)cc1F [Compound 131, 6-(4-(7-(2-(dimethylamino)ethoxy)-2-methyl-2H-indazol-4-yl)-2,6-difluorobenzyl)-6,7-dihydro-5H-pyrrolo[3,4-b]pyridin-5-one-7,7-d2]
EC50 (human mAChR M1 [1]): 381 nM | Emax (human mAChR M1 [1]): 80% | Agonist Activity Human M1 EC50 (human mAChR M1 [2]): Inactive | Emax (human mAChR M1 [2]): 5%

[2H]C1([2H])c2ncccc2C(=O)N1Cc1ccc(-c2ccc3cncn3c2)cc1 [Compound 18, 6-(4-(imidazo[1,5-a]pyridin-6-yl)benzyl)-6,7-dihydro-5H-pyrrolo[3,4-b]pyridin-5-one-7,7-d2]
EC50 (human mAChR M1 [1]): 4170 nM | Emax (human mAChR M1 [1]): 65% | Agonist Activity Human M1 EC50 (human mAChR M1 [2]): Inactive | Emax (human mAChR M1 [2]): 2%

[2H]c1nnc2cccc(-c3ccc(CN4C(=O)c5cccnc5C4([2H])[2H])cc3)n12 [Compound 240, 6-(4-([1,2,4]triazolo[4,3-a]pyridin-5-yl-3-d)benzyl)-6,7-dihydro-5H-pyrrolo[3,4-b]pyridin-5-one-7,7-d2]
EC50 (human mAChR M1 [1]): > 10000 nM | Emax (human mAChR M1 [1]): 27% | Agonist Activity Human M1 EC50 (human mAChR M1 [2]): Inactive | Emax (human mAChR M1 [2]): 3%

[2H]C1([2H])c2ncccc2C(=O)N1Cc1c(F)cc(-c2ccc3nn(C)cc3c2)cc1Cl [Compound 167, 6-(2-chloro-6-fluoro-4-(2-methyl-2H-indazol-5-yl)benzyl)-6,7-dihydro-5H-pyrrolo[3,4-b]pyridin-5-one-7,7-d2]
EC50 (human mAChR M1 [1]): 256 nM | Emax (human mAChR M1 [1]): 85% | Agonist Activity Human M1 EC50 (human mAChR M1 [2]): Inactive | Emax (human mAChR M1 [2]): 2%
